Values quoted from earlier work, collected in patent US7777051B2, “Asymmetric benzimidazoles and related compounds as potassium channel modulators” (Icagen, Inc., priority 2003, dated 2010).

Experiments:
[1] = biological target: T1, recombinant human SK4 (hIK1 or hKCa4) channels (Homo sapiens, UniProt O15554+P0DP23); conditions: applied to the inside of membrane patches, concentrations up to 100 μM; HEK 293
T1 construct: host or cells: HEK 293 cells (transfected, membrane patches)

SK2 subtype channels = SK2 subtype channels (Rattus norvegicus, UniProt P70604); conditions: patch clamp

Compound | activation of SK4 channels [1] | also measured
lead | activated SK4 channels in a concentration-dependent manner | –
zinc | did not activate the SK4 channels | –
Nc1c2c(nc3ccccc13)CCCC2 [tacrine] | – | block of SK2 channel currents (SK2 subtype channels): block SK2 channel currents with micromolar affinity
iron | did not activate the SK4 channels | –
O=C1N(c2ccccc2)c2ccccc2C1(Cc1ccncc1)Cc1ccncc1 [linopirdine] | – | inhibition of SK channels (SK channels): ineffective at inhibiting SK channels
strontium | activated SK4 channels in a concentration-dependent manner | –
Barium | activated SK4 channels in a concentration-dependent manner | –
magnesium | did not activate the SK4 channels | –
NC(=O)N1c2ccccc2C=Cc2ccccc21 [carbamazepine] | – | block of SK2 channel currents (SK2 subtype channels): block SK2 channel currents with micromolar affinity
CN(C)CCC=C1c2ccccc2CCc2ccccc21 [amitriptyline] | – | block of SK2 channel currents (SK2 subtype channels): block SK2 channel currents with micromolar affinity
cadmium | activated SK4 channels in a concentration-dependent manner | –
calcium | activated SK4 channels in a concentration-dependent manner | –
cobalt | did not activate the SK4 channels | –
